target: T1, purified 11β-HSD1 (recombinant, expressed in E. coli) (Homo sapiens, UniProt P28845); assay: Inhibition of purified 11β-HSD1, Scintillation Proximity Assay; format: biochemical; settings: recombinant enzyme, 3H cortisone, NADPH, room temperature
T1 construct: made in house; host or cells: E. coli
Procedure: (§1) The inhibition of purified 11β-HSD1 by compounds of Formula I was measured as follows using a Scintillation Proximity Assay. All reactions were carried out at room temperature in 96 well flexible Microbeta reaction plates. The assay begins by adding 1 microliter of a 0.1 mM solution of a compound of Formula I in DMSO previously diluted in half-log increments (8 points) starting at 1 micromolar final concentration. To this dot was added 50 microliters of substrate solution (50 mM HEPES, pH 7.4, 100 mM KCl, 5 mM NaCl, 2 mM MgCl2 containing […] of ^3H cortisone, 1 mM NADPH). After a 10 minute incubation, 50 microliters of enzyme solution containing 20 nM recombinant 11β-HSD1 (expressed in E. coli, and affinity purified) was added, The reaction was incubated for 90 minutes, and stopped by adding 50 microliters of SPA bead mix (18-β-glycyrrhetinic acid, 10 micromolar final, 5 mg/ml protein A coated YSi SPA beads, and 1-microgram/ml alpha-cortisol antibody (East Coast Biologics). The plate shaken for 120 minutes, and the radioactivity corresponding to ^3H cortisol was measured on a Wallac Microbeta.

T1 sequence (P28845 whole entry): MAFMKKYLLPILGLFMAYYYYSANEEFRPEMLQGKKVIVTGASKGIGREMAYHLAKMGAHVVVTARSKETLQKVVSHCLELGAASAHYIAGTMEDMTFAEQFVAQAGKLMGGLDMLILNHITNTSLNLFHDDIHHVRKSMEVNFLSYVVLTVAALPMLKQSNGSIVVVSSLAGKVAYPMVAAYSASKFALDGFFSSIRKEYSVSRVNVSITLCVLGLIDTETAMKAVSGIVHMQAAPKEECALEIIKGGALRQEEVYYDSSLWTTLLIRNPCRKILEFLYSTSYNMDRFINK

| IC50 | Structure (SMILES) |
| --- | --- |
| < 50 nM | CC(C)(C)[C@H]1CN(C2C3CC4CC(C3)CC2C4)C(=O)O1 (stereo partly drawn) [Example 12, (S)-3-(2-adamantyl)-5-tert-butyloxazolidin-2-one] |
| < 50 nM | CN1C(=O)N(C2C3CC4CC(C3)CC2C4)C[C@@H]1C(C)(C)C (stereo partly drawn) [Example 28, (S)-1-(2-adamantyl)-4-tert-butyl-3-methylimidazolidin-2-one] |

target: T2, 11β-HSD1 in whole cells (omental adipocytes) (Homo sapiens, UniProt P28845); assay: Inhibition of 11β-HSD1 in whole cells (omental adipocytes), cortisone to cortisol conversion, SPA; format: cell-based; settings: 100 nM [3H] cortisone, 37 degrees C
T2 construct: host or cells: omental adipocytes differentiated from preadipocytes
T2 sequence (P28845 whole entry): as above
Procedure: The inhibition of 11β-HSD1 by compounds of Formula I in whole cells was measured as follows. Omental adipocytes cultured in 96-well plates were purchased from Zen-Bio, Inc. and used at least two weeks after differentiation from precursor preadipocytes started in medium supplemented with adipogenic and lipogenic hormones (human insulin, dexamethasone, isobutylmethylxanthine and PPAR-gamma agonist). The cells were maintained in full adipocyte medium (DMEM/Ham's F-12 (1:1, v/v), HEPES pH 7.4, fetal bovine serum, penicillin, streptomycin and Amphotericin B, supplied by Zen-Bio, Inc.) at 37 degrees C., 5% CO2 and transferred into serum-free, phenol red free medium for overnight incubation. The assay was performed in a total volume of 200 microliters. The cells were pre-incubated with serum-free, phenol red free medium containing 0.1% (v/v) of DMSO and various concentrations of compounds of Formula I at least 1 h before [^3H] cortisone in ethanol (50 Ci/mmol, ARC, Inc.) was added to achieve final concentration of cortisone of 100 nM. The cells were incubated for 3-4 at 37 degrees Centigrade, 5% CO2. Negative controls were incubated without radioactive substrate and received the same amount of [^3H] cortisone at the end of the incubation. Formation of [^3H] cortisol was monitored by analyzing 25 microliters of each supernatant in scintillation proximity assay (SPA). (Solly, K.; Mundt, S. S.; Zokian, H. J.; Ding, G. J.; Hermanowski-Vosatka, A.; Strulovici, B.; Zheng, W. Assay Drug Dev. Technol. 2005, 3, 377-384),

| Structure (SMILES) | IC50 |
| --- | --- |
| O=C1OC(c2cccc(-c3ccccc3)c2)CN1C1C2CC3CC(C2)CC1C3 (racemic) [Example 37, (±)-5-(biphenyl-3-yl)-3-(2-adamantyl)oxazolidin-2-one] | 50 to 1000 nM |
| CC(C)(C)[C@H]1CN(C2C3CC4CC(C3)CC2C4)C(=O)O1 (stereo partly drawn) [Example 12, (S)-3-(2-adamantyl)-5-tert-butyloxazolidin-2-one] | < 50 nM |
| CN1C(=O)N(C2C3CC4CC(C3)CC2C4)C[C@@H]1C(C)(C)C (stereo partly drawn) [Example 28, (S)-1-(2-adamantyl)-4-tert-butyl-3-methylimidazolidin-2-one] | < 50 nM |
| CC(C)[C@H]1CN(C2C3CC4CC(C3)CC2C4)C(=O)N1 (stereo partly drawn) [Example 33, (S)-4-isopropyl-1-(2-adamantyl)imidazolidin-2-one] | < 50 nM |

Further lines, results first:

| IC50 | Structure (SMILES) |
| --- | --- |
| 50 to 1000 nM | O=C1N[C@@H](c2ccccc2)CN1C12CC3CC(CC(C3)C1)C2 [Example 30, (S)-1-(1-adamantyl)-4-phenylimidazolidin-2-one] |
| < 50 nM | O=C1N[C@@H](C2CCCCC2)CN1C1C2CC3CC(C2)CC1C3 (stereo partly drawn) [Example 32, (S)-4-cyclohexyl-1-(2-adamantyl)imidazolidin-2-one] |

target: microsomal 11β-HSD1 (Homo sapiens, UniProt P28845); assay: Inhibition of microsomal 11β-HSD1, Scintillation Proximity Assay; format: biochemical; settings: microsomal enzyme, same manner as purified enzyme assay
Sequence (P28845 whole entry): as above
Procedure: as §1
The inhibition of microsomal 11β-HSD1 was carried out in the same manner.

| Structure (SMILES) | IC50 |
| --- | --- |
| O=C1OC(c2cccc(-c3ccccc3)c2)CN1C1C2CC3CC(C2)CC1C3 (racemic) [Example 37, (±)-5-(biphenyl-3-yl)-3-(2-adamantyl)oxazolidin-2-one] | < 50 nM |
| CC(C)(C)[C@H]1CN(C2C3CC4CC(C3)CC2C4)C(=O)O1 (stereo partly drawn) [Example 12, (S)-3-(2-adamantyl)-5-tert-butyloxazolidin-2-one] | < 50 nM |
| CN1C(=O)N(C2C3CC4CC(C3)CC2C4)C[C@@H]1C(C)(C)C (stereo partly drawn) [Example 28, (S)-1-(2-adamantyl)-4-tert-butyl-3-methylimidazolidin-2-one] | < 50 nM |
| CC(C)[C@H]1CN(C2C3CC4CC(C3)CC2C4)C(=O)N1 (stereo partly drawn) [Example 33, (S)-4-isopropyl-1-(2-adamantyl)imidazolidin-2-one] | < 50 nM |

More lines, now with the values ahead:

| IC50 | Structure (SMILES) |
| --- | --- |
| < 50 nM | O=C1N[C@@H](c2ccccc2)CN1C12CC3CC(CC(C3)C1)C2 [Example 30, (S)-1-(1-adamantyl)-4-phenylimidazolidin-2-one] |
| < 50 nM | O=C1N[C@@H](C2CCCCC2)CN1C1C2CC3CC(C2)CC1C3 (stereo partly drawn) [Example 32, (S)-4-cyclohexyl-1-(2-adamantyl)imidazolidin-2-one] |

— patent US8835426B2, “Cyclic urea and carbamate inhibitors of 11β-hydroxysteroid dehydrogenase 1” (Vitae Pharmaceuticals, Inc., priority 2007, dated 2014)
